In PubChem BioAssay AID330 (DTP/NCI, 2004):
Several values for one entry are separate records, joined by “and”; a condition that tells them apart may be missing. Identical values can stand only once. Inconclusive results and toxic doses are left out.

Test system: P388 leukemia ip, CD2F1 mice, survival T/C
Assay: NCI In Vivo Anticancer Drug Screen. Data for tumor model P388 Leukemia (intraperitoneal) in CD2F1 (CDF1) mice
Settings: endpoint: median survival time, higher = longer survival
In short: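 Mice carrying the transplanted tumor received test compound or vehicle. Survival was recorded in each group, and the value is the treated-group measurement divided by that of the vehicle-treated control group.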

[1] = dose: 50.0 mg/kg/injection, schedule: Q01DX005 (ip), vehicle: saline with Tween-80
[2] = dose: 50.0 mg/kg/injection, schedule: Q01DX009 (ip), vehicle: Klucel (hydroxypropylcellulose) (HPC)
[3] = dose: 100.0 mg/kg/injection, schedule: Q01DX009 (ip), vehicle: Klucel (hydroxypropylcellulose) (HPC)
[4] = dose: 200.0 mg/kg/injection, schedule: Q01DX009 (ip), vehicle: Klucel (hydroxypropylcellulose) (HPC)
[5] = dose: 100.0 mg/kg/injection, schedule: Q01DX005 (ip), vehicle: saline with Tween-80
[6] = dose: 200.0 mg/kg/injection, schedule: Q01DX005 (ip), vehicle: saline with Tween-80

CN(C)c1ccc(N=NN=c2n(C)c3ccccc3n2C)c(Cl)c1
T/C (dose: 6.25 mg/kg/injection, schedule: Q01DX005 (ip), vehicle: saline with Tween-80): 103 % of control | T/C (dose: 12.5 mg/kg/injection, schedule: Q01DX005 (ip), vehicle: saline with Tween-80): 106 % of control and 109 % of control | T/C (dose: 25.0 mg/kg/injection, schedule: Q01DX005 (ip), vehicle: saline with Tween-80): 113 % of control and 115 % of control | T/C [1]: 117 % of control

CCN(CC)c1ccc2nc3c4ccccc4c(=NC(=O)c4ccccc4-c4c5ccc(N(CC)CC)cc5[o+]c5cc(N(CC)CC)ccc45)cc-3oc2c1
T/C (dose: 50.0 mg/kg/injection, schedule: Q01DX009 (ip), vehicle: saline): 106 % of control | T/C (dose: 100.0 mg/kg/injection, schedule: Q01DX009 (ip), vehicle: saline): 96 % of control

COc1cc([N+](=O)[O-])ccc1N=Cc1ccc(C=Nc2ccc([N+](=O)[O-])cc2OC)cc1
T/C [2]: 95 % of control and 96 % of control | T/C [3]: 86 % of control and 96 % of control | T/C [4]: 96 % of control

Cc1nc2ncn(-c3ccccc3)c2c(=O)n1Cc1ccco1
T/C (dose: 50.0 mg/kg/injection, schedule: Q01DX005 (ip), vehicle: Klucel (hydroxypropylcellulose) (HPC)): 103 % of control | T/C (dose: 100.0 mg/kg/injection, schedule: Q01DX005 (ip), vehicle: Klucel (hydroxypropylcellulose) (HPC)): 103 % of control | T/C (dose: 200.0 mg/kg/injection, schedule: Q01DX005 (ip), vehicle: Klucel (hydroxypropylcellulose) (HPC)): 95 % of control

CC(=O)c1c(O)c2ccc(Cl)cc2[nH]c1=O
T/C [1]: 99 % of control | T/C [5]: 96 % of control | T/C [6]: 99 % of control

O=C1OCCOCCOCCOCCOCCOC(=O)C1c1ccccc1
T/C [2]: 102 % of control | T/C [3]: 101 % of control | T/C [4]: 100 % of control

CCN(CC)CCNc1ccc(C)c2oc3ccc(O)cc3c(=O)c12
T/C (dose: 12.5 mg/kg/injection, schedule: Q01DX005 (ip), vehicle: distilled water + Tween-80): 106 % of control | T/C (dose: 25.0 mg/kg/injection, schedule: Q01DX005 (ip), vehicle: distilled water + Tween-80): 106 % of control | T/C (dose: 50.0 mg/kg/injection, schedule: Q01DX005 (ip), vehicle: distilled water + Tween-80): 117 % of control

O=[N+]([O-])c1ccc(Nc2ccc(Cl)cc2)c2nonc12
T/C [1]: 100 % of control | T/C [5]: 103 % of control | T/C [6]: 97 % of control

Cc1cc2c(c3oc(C4(C)OC4C4OC4C)cc(=O)c13)C(=O)c1c(O)c(C3CC(C)(N(C)C)C(O)C(C)O3)cc(C3CC(N(C)C)C(O)C(C)O3)c1C2=O (centres undefined)
T/C (dose: 0.02 mg/kg/injection, schedule: Q01DX005 (ip), vehicle: saline): 150 % of control | T/C (dose: 0.02 mg/kg/injection, schedule: Q03HX008 (ip), vehicle: saline): 122 % of control | T/C (dose: 0.02 mg/kg/injection, schedule: Q03HX016 (ip), vehicle: saline): 113 % of control | T/C (dose: 0.03 mg/kg/injection, schedule: Q01DX009 (ip), vehicle: saline): 95 % of control | T/C (dose: 0.03 mg/kg/injection, schedule: Q03HX008 (ip), vehicle: saline): 118 % of control | T/C (dose: 0.03 mg/kg/injection, schedule: Q03HX016 (ip), vehicle: saline): 109 % of control | T/C (dose: 0.03 mg/kg/injection, schedule: Q04DX003 (ip), vehicle: saline): 150 % of control | T/C (dose: 0.06 mg/kg/injection, schedule: Q01DX005 (ip), vehicle: saline): 100 % of control | T/C (dose: 0.06 mg/kg/injection, schedule: Q01DX009 (ip), vehicle: saline): 104 % of control | T/C (dose: 0.06 mg/kg/injection, schedule: Q03HX008 (ip), vehicle: saline): 122 % of control | T/C (dose: 0.06 mg/kg/injection, schedule: Q04DX003 (ip), vehicle: saline): 150 % of control | T/C (dose: 0.06 mg/kg/injection, schedule: Q08DX002 (ip), vehicle: saline): 150 % of control | T/C (dose: 0.12 mg/kg/injection, schedule: Q01DX001 (ip), vehicle: saline): 150 % of control | T/C (dose: 0.12 mg/kg/injection, schedule: Q03HX016 (ip), vehicle: saline): 113 % of control | T/C (dose: 6.25 micrograms/kg/injection, schedule: Q01DX009 (ip), vehicle: saline): 123 % of control | T/C (dose: 10.0 micrograms/kg/injection, schedule: Q01DX009 (ip), vehicle: water): 99 % of control | T/C (dose: 12.5 micrograms/kg/injection, schedule: Q01DX009 (ip), vehicle: saline): 101 % of control

CN1CCN(C)C1=Nc1ccccc1/C=C/C=C1C(=O)N(C)C(=O)N(C)C1=O
T/C (dose: 25.0 mg/kg/injection, schedule: Q04DX002 (ip), vehicle: saline with Tween-80): 114 % of control | T/C (dose: 50.0 mg/kg/injection, schedule: Q04DX002 (ip), vehicle: saline with Tween-80): 106 % of control | T/C (dose: 100.0 mg/kg/injection, schedule: Q04DX002 (ip), vehicle: saline with Tween-80): 123 % of control
